Here are results for one molecule from publication PMC6754133 (PLoS ONE, 2019).

Where only a bound is given, the exact number is not on record here.

The subject of assay [1] is DAOY cells. Nature of the assay: cells. As to conditions: Homo sapiens, 72 h, read-out: Cell viability assay IC50.
For assay [2], the system named is MB-PDX xenograft. Nature of the assay: Subcutaneous patient-derived medulloblastoma xenograft model, tumor volume. In kind it is in vivo, mouse. The settings on record: NSG mice, 40 mg/kg daily intraperitoneally from day 7, 42 days. (In xenograft studies the graft and the host belong to different species.)
Description: Tumor volumes were monitored three times a week in the course of treatment.
NSG mice, 4–6 weeks old, were injected subcutaneously at shoulders and flanks with 1 × 10^6 viable MB-PDX cells in 1:1 HBSS and gelatinous protein mixture Matrigel. […] The tumor size was measured three times a week with a caliper, and tumor volumes were calculated according to the formula (length × width × width × 0.5). At day 42 post-grafting, all mice were euthanized by isoflurane inhalation and cervical dislocation.
Assay [3] has as its target Abelson tyrosine-protein kinase 2 (ABL2_HUMAN). As to conditions: S2/S3 Table; ref [1] Davis MI et al., Nat Biotechnol. 2011; cited from earlier work.
The target in assay [4] is Carbonic anhydrase 1 (CAH1_HUMAN). The settings on record: S2/S3 Table; ref [2] Parkkila S et al., Bioorg Med Chem Lett. 2009; cited from earlier work.
In assay [5] the test system is Gli-1 mRNA in Math1-Cre; ptch1-flox/flox cells. Nature of the assay: qRT-PCR of Gli-1 mRNA in Math1-Cre; ptch1-flox/flox (PTCH -/-) cells treated ex vivo. In kind it is cell-based, mouse. As to conditions: 10 μM ex vivo, 24 hours. The protocol: An in vivo medulloblastoma model was established as described before. Briefly, 6–7 weeks old NOD-scid IL-2Rg null (NSG) mice (the Jackson Laboratory) were anesthetized with xylazine-ketamine, and […]. Dissociated Math1-Cre; ptch1-flox/flox cells (1×10^6 cells in 4 μL HBSS)[58] were injected into the mouse brains using murine stereotaxic system (Stoelting Co). The coordinates were: 1.8mm to the right of bregma and 3mm deep from the dura. To disassociate the orthotopic tumor into the single cells for the serial implantation or the ex-vivo experiment, the tumor was dissected from the cerebellum, followed by digestion using Papain (10 U per mL), DNase (250 U) and L-cystein (2 mg) at 37°C for 30 min.
Both post-vivo MB-PDX cells and Math1-Cre; ptch1-flox/flox cells were analyzed for Gli-1 mRNA expression. For that, total RNA was extracted from dissociated single cells using QIAGEN RNease Mini Kit and cDNA was prepared using 1μg RNA with iScript cDNA Synthesis Kit (Bio-Rad). SYBR green-based QPCR was performed using murine primers listed as below (GLI1, Forward 5’- […]-3’, Reverse 5’-[…]-3’, GAPDH Forward 5'-[…] -3', Reverse 5'-[…]-3'). mRNA levels were normalized to GAPDH (dCt = Ct gene of interest–Ct GAPDH) and reported as relative mRNA expression (ddCt = 2-^(dCt sample–dCt control)) in fold change.

Assay [6] has as its system nuclear Gli-1 in MB-PDX cells. Nature of the assay: Western blot quantitation of nuclear Gli-1. It is filed as cell-based, human. The settings on record: NS conditions, 24-hour treatment, 5 μM (Fig 6f, S4 Fig). The protocol: (§1) Nuclear fractions were prepared from cell pellets according to the method of Schreiber et. al.[81] with minor modifications. […] After 24 hours, cells were lifted from the wells by pipetting, transferred to 1.5 mL Eppendorf tubes, centrifuged at 10,000 x g for 1 minutes at 4°C, and washed once in PBS. Following supernatant removal by vacuum, cells were lysed using a plasma membrane lysis buffer [10 mM HEPES; pH 7.5, 10 mM KCl, 0.1 mM EDTA, 1 mM dithiothreitol (DTT), 0.5% Nonidet P‐40 and 0.5 mM PMSF along with 1× protease inhibitor cocktail (Sigma)] and allowed to swell on ice for 15‐20 min with intermittent mixing. Next, tubes were vortexed to disrupt cell membranes and then centrifuged at 12,000 × g at 4°C for 10 min. […] The pelleted nuclei were washed with the plasma membrane lysis buffer and re-suspended in the nuclear extraction buffer [20 mM HEPES (pH 7.5), 400 mM NaCl, 1 mM EDTA, 1 mM DTT, 1 mM PMSF with 1× protease inhibitor cocktail] and incubated on ice for 30 min. The tubes were centrifuged at 12,000 ×g for 25 min at 4°C and the supernatant (now containing the soluble fraction of the cell nuclei) was collected. Total protein concentrations were determined using the Bio-Rad Protein Assay (Bio-Rad, Hercules, CA). Nuclear extracts containing the total of 40 μg protein were separated on a 10% Tris-SDS PAGE gel (Bio-Rad Mini-PROTEAN® TGX). Gels were transferred on nitrocellulose membranes using Bio-Rad TransBlot system, after which the membranes were blocked in the blocking buffer [5% nonfat dry milk in 1× Tris Buffer Saline + 0.1% Tween 20 (TBST)] for 2 hours at room temperature. Following blocking, the membranes were washed four times with TBST (5 minutes gentle rocking per wash) and incubated overnight with primary antibody Rabbit anti-Gli-1 (Cell signaling, #C68H3); 1:250 dilution in TBST-Milk at 4°C with gentle rocking. Membranes were washed three times with TBST for 5 min each.

The test system of assay [7] is nuclear Gli-1 in DAOY cells. The assay is described as follows: Western blot quantitation of nuclear Gli-1. It is filed as cell-based, human. As to conditions: NS conditions, 24-hour treatment, 5 μM (Fig 6f, S4 Fig). How it is done:
as §1
On the technique in general: Immunoblotting shows a protein as a band on a membrane.

Assay [8] has as its system MB-PDX cells. Nature of the assay: Neurosphere formation assay. It is filed as cell-based, human. As to conditions: Homo sapiens, 168 h, read-out: Inhibition of NS formation, wells.
Description: The final concentration of test compounds in the wells was 10 μM. Cells were incubated at 37 °C for at least seven days. After incubation percent of wells positive with neural stem cell-derived sphere colonies were calculated for each test condition and compared.

The IC50 is the concentration needed to halve the response being measured. As a reminder, the inhibition is the change of the read-out against control, counted positive when it falls. As for `Cc1cn(-c2cc(NC(=O)c3ccc(C)c(Nc4nccc(-c5cccnc5)n4)c3)cc(C(F)(F)F)c2)cn1` [Nilotinib], the concentration for half-maximal inhibition (IC50) in assay [1] worked out at 6 µM. In assay [2], the “Tumor volume versus vehicle-treated group” value is reported as “significantly smaller tumors”. Further, the results for the “Kd/Ki Value” in assay [3] and in assay [4] were 26 nM and 29.3 nM, respectively. Moreover, the “Gli-1 mRNA expression versus vehicle treated cells” value in assay [5] is on record as “significant reduction in Gli-1 mRNA expression”. In addition, the “Nuclear Gli-1, mean, % of untreated samples” value is 41% in assay [6] and 46% in assay [7]. The inhibition at 10 µM in assay [8] was above 90%.
